Assay results reported in the NIST ThermoML archive (doi:10.1021/je700055p).

Assay: relative permittivity at various frequencies (dimensionless); xn = mol fraction of the nth substance listed
Settings: 101.3 kPa, Liquid, Frequency=1 MHz, Coaxial cylinder capacitor

CC#N [acetonitrile] + O
relative permittivity
Settings	288.15 K	293.15 K	298.15 K	303.15 K	308.15 K	313.15 K	318.15 K	323.15 K	328.15 K	333.15 K
x1 = 0.0465	78.61	76.8	74.92	73.36	71.55	70.04	68.44	66.84	65.36	63.85
x1 = 0.0988	73.85	72.05	70.49	68.85	67.33	65.9	64.34	62.99	61.47	60.07
x1 = 0.158	68.68	67.21	65.57	64.22	62.78	61.26	59.91	58.6	57.29	55.97
x1 = 0.226	63.44	62	60.61	59.3	58.07	56.79	55.44	54.13	53.02	51.79
x1 = 0.305	58.11	56.92	55.69	54.58	53.43	52.28	51.18	49.99	48.92	47.94
x1 = 0.397	53.1	52.2	51.05	50.07	48.88	47.98	46.87	45.89	44.9	43.92
x1 = 0.506	48.72	47.77	46.83	45.89	44.99	44.12	43.18	42.28	41.38	40.52
x1 = 0.637	44.82	43.92	43.1	42.2	41.38	40.64	39.74	38.84	37.97	37.15
x1 = 0.798	41.05	40.39	39.41	38.67	37.85	37.11	36.29	35.39	34.82	34.08
x1 = 1	37.52	36.62	35.88	35.15	34.45	33.75	33.01	32.36	31.62	31.05
